# According to PMC12473897 (Toxics, 2025):
# System: T1, Coptodon zillii liver rhodanese
# T1 construct: gene tst
# Settings: co-substrate KCN; standard assay borate pH 9.4, 37 °C; 5-50 mM range
compound,measurement,value
O=S(O)(O)=S [sodium thiosulphate],Km,20 mM
